Results on 63 compounds are retold here after patent US20260365696A1, “INHIBITORS OF PTP1B / NCK1 INTERACTION AND METHODS OF MAKING AND USING SAME” (Radella Pharmaceuticals LLC, priority 2023, published 2026).

Non-standard residues stand in square brackets, D forms with d. Residues, ends and D or L forms follow the SMILES beside them. pGlu = O=C1CC[C@@H](C(=O)O)N1

The target of the first experiment is T1, SH3-2 domain of NCK1 (Homo sapiens, UniProt P16333).
T1 construct: To amplify the NCK1 SH3-2 domain, the primers; 10xHis tag with TEV site (vector pSF-OXB20-NH2-10HIS) (N, cleaved yes); made in house; host or cells: E. coli C43(DE3)
Nature of the experiment: Isothermal titration calorimetry (ITC) binding to NCK1 SH3-2 domain. The following applies: Alanine scanning of the MD17 15-mer peptide; ITC, 25 °C, pH 8.0. The source says:
Human PTP1B cDNA (NM_002827) and human NCK1 cDNA (NM 006153) were obtained (Origene, MD, USA). PTP1B Primers were designed to amplify the ORFs with added homology to the cut vector (EcoRI-digested pSF-OXB20-NH2-10HIS) in the forward primer sequence. To amplify full-length PTP1B, the primers ptp1b_FL_fwd ([…]) (SEQ ID NO: 159) and ptp1b_FL_rev ([…]) (SEQ ID NO: 160) were used. To amplify truncations of PTP1B, the following primer pairs were used: ptp1b_FL-Fwd and one of Ptplb_323stop_rev (gtgcaggaggagttcgaatt[…]) (SEQ ID NO: 161), ptp1b_344stop_rev ([…]) (SEQ ID NO: 162) or ptp1b_278stop_rev([…]) (SEQ ID NO: 163). To amplify the NCK1 SH3-2 domain, the primers ncklsh32_fwd ([…]) (SEQ ID NO: 164) and ncklsh32_rev ([…]) (SEQ ID NO: 165) were used. The amplified fragments were purified using a DNA clean-up kit according to manufacturer's instructions (QIAquick PCR purification kit, Qiagen).
To produce and purify fusion proteins, a culture was inoculated with 1% of overnight-cultured inoculum. Protein expression was carried out under the conditions described above, scaled up as necessary. Cells expressing the recombinant proteins were harvested in 50 mL tubes by centrifugation and stored at −80 °C. Cells containing the expressed gene product were thawed over ice and resuspended in Extraction buffer (10 mM Tris, pH 7.4 or 10 mM Sodium Phosphate, pH 8.0; 300 mM NaCl, 1 mM DTT or TCEP; 0-10% glycerol and 1 μg lysozyme) and sonicated over ice (4 °C) for 3 min total using pulses of 5 s with 15 s intervals, using a wide probe at 15 amplitude microns (Soniprep 150, MSE). Insoluble material was removed from the lysate by centrifugation at 20K rpm for 20-60 min at 4 °C. Supernatant was filtered through a 0.22 μm PVDF filter membrane and applied to 1-2 5 mL HisTrap FF Crude (Cytiva) prepacked Ni columns and connected to an AKTA explorer. After thorough washing with binding buffer (10 mM Tris, pH 7.4 or 10 mM Sodium Phosphate, pH 8.0; 300 mM NaCl; 1 mM DTT or TCEP and 25 mM Imidazole), protein was eluted using elution buffer (10 mM Tris, pH 7.4 or 10 mM Sodium Phosphate, pH 8.0; 150-300 mM NaCl; 1 mM DTT or TCEP and 250 mM Imidazole). Fractions containing protein of interest were confirmed by SDS PAGE. Protein was diluted with GF buffer (10 mM Tris, pH 7.4 or 10 mM Sodium Phosphate, pH 8.0; 150-300 mM NaCl) and subjected to TEV protease treatment overnight at 4-10 °C. Following proteolytic digestion, HIS-tag and TEV protease were removed by filtration through a clean 5 mL HisTrap FF Crude (Cytiva) prepacked Ni column. Protein was concentrated on a PES ultrafiltration device by centrifugation at 4000 rpm at 4 °C, and protein was polished via a HiPrep S-100 26/60 (Cytiva) using GF buffer (as described above). Purified proteins were concentrated using ultrafiltration, and protein concentration was determined using ultraviolet-visible spectroscopy. The integrity and identity of all proteins were verified by mass spectrographic analysis.
Isothermal titration calorimetry (ITC) was used to determine binding affinities for peptides against the SH3-2 domain of NCK1. Experiments were conducted at 25 °C using either a MicroCal iTC200 or MicroCal PEAQ-ITC calorimeter. The buffer used for all ITC experiments was 10 mM sodium [COMPOUND LEFT OUT] mM sodium chloride (pH=8.0). A series of peptides (concentration 3-7.5 mM) were titrated in to NCK1 SH3-2 domain (concentration 0.125-0.3 mM) using the following conditions: one injection of 0.2 μL followed by 19 injections of 2 μL, 120-150 seconds spacing between injections, at 25 °C. The data were fit using analysis software provided by the manufacturer and affinity values were calculated. The best fitting occurred when the number of sites was between 0.8 and 1.2. The experiments were repeated twice for a total of three times, and the average binding affinity for each peptide was generated. […]
For orientation: ITC needs no label: the signal is the heat of the interaction.
Broadly, the Kd is the concentration at which binding is half-saturated. The low end stands for tighter binding, the high end for weaker binding. As to Ac-PPPAHIPPPPRPPKR-NH2 [MSJ015], the Kd is not above 300 µM.

Compound Ac-PPAEHIPPPPRPPKR-NH2 [MSJ014] gave a Kd not above 300 µM. The same measure, in the same setting: for Ac-PPPEHIPPPPRAPKR-NH2 [MH004] the value was not above 300 µM; for Ac-PPPEHIPAPPRPPKR-NH2 [MSJ019], not above 300 µM; for Ac-APPEHIPPPPRPPKR-NH2 [MSJ012], not above 300 µM. With Ac-PPPEAIPPPPRPPKR-NH2 [MSJ016], the Kd was not above 300 µM.

As for Ac-PPPEHIPPPPRPPKA-NH2 [MH007], the Kd is more than 1000 µM. With Ac-PPPEHIPPAPRPPKR-NH2 [MH001], the Kd is not above 300 µM.

For Ac-PPPEHIPPPPRPAKR-NH2 [MH005], the Kd was more than 1000 µM.

The same experiment, now with this note: Alanine scanning of the MD20 6-mer peptide; ITC, 25 °C, pH 8.0.
In turn, Ac-ARPPKR-NH2 [MH008, Ac-ARPPKR-NH2] registered a Kd of more than 1000 µM. Same read-out and setting: for Ac-PRPPAR-NH2 [MH012, Ac-PRPPAR-NH2] the value was 300 to 600 µM; for Ac-PRAPKR-NH2 [MH010, Ac-PRAPKR-NH2], more than 1000 µM.

Staying with this experiment, now noted: ITC.
On to Ac-PPRPPK-NH2 [MH035, Ac-PPRPPK-NH2], for which the “binding to NCK1 SH3-2 domain (in words)” value is given as “abolished binding”. With Ac-PPPRPPK-NH2 [MH041, Ac-PPPRPPK-NH2], the “binding to NCK1 SH3-2 domain (in words)” value is recorded as “abolished binding”.

Staying with this experiment, now noted: Modified MD18/MD20 peptides; ITC, 25 °C, pH 8.0.
Regarding `N=C(N)NCCC[C@H](NC(=O)[C@H](CCCCN)NC(=O)[C@@H]1CCCN1C(=O)[C@@H]1CCCN1C(=O)[C@H](CCCNC(=N)N)NC(=O)[C@@H]1CCCN1C(=O)[C@@H]1CCC(=O)N1)C(N)=O` [MH043, H-Pyr-PRPPKR-NH2] ([pGlu]PRPPKR-NH2), the Kd is not above 300 µM. Same read-out and setting: under `CCNC(=O)[C@H](CCCNC(=N)N)NC(=O)[C@H](CCCCN)NC(=O)[C@@H]1CCCN1C(=O)[C@@H]1CCCN1C(=O)[C@H](CCCNC(=N)N)NC(=O)[C@@H]1CCCN1C(=O)[C@@H]1CCCN1C(C)=O` [MH046, Ac-PPRPPKR-NHEt] (Ac-PPRPPKR-NHEt) stands not above 300 µM.

The experiment is the same for the next values; noted with them: N- or C-terminal extensions; ITC, 25 °C, pH 8.0; 30-mers tested one to three times.
On to “Ac-PPPEHIPPPPRPPKRILEPHNGKCREFFPN-NH2 [MH137]”, for which the Kd was not above 300 µM.

The experiment is the same for the next values; noted with them: Peptide truncation analysis; ITC, 25 °C, pH 8.0.
With Ac-IPPPPRPPKR-NH2 [MH026], the Kd was not above 300 µM. In the case of `CC(=O)N1CCC[C@H]1C(=O)N[C@@H](CCCNC(=N)N)C(=O)N1CCC[C@H]1C(N)=O` [MH019, Ac-PRP-NH2] (Ac-Pro-Arg-Pro-NH2), the Kd was more than 1000 µM.

Take `CC(=O)N[C@@H](CCCNC(=N)N)C(=O)N1CCC[C@H]1C(=O)N1CCC[C@H]1C(=O)N[C@@H](CCCCN)C(N)=O` [MH016, Ac-RPPK-NH2] (Ac-RPPK-NH2): the Kd was more than 1000 µM. The same measure, in the same setting: for `CC(=O)N[C@@H](CCCNC(=N)N)C(=O)N1CCC[C@H]1C(=O)N1CCC[C@H]1C(N)=O` [MH020, Ac-RPP-NH2] (Ac-Arg-Pro-Pro-NH2) the value was more than 1000 µM.

The experiment is the same for the next values; noted with them: Sliding window peptide analysis; ITC, 25 °C, pH 8.0.
In turn, Ac-PPPRPP-NH2 [MH036, Ac-PPPRPP-NH2] came in with a Kd of more than 1000 µM.

Take Ac-PPPPRP-NH2 [MH037, Ac-PPPPRP-NH2]: the Kd is more than 1000 µM. Same read-out and setting: under Ac-PPRPPK-NH2 [MH035, Ac-PPRPPK-NH2] stands more than 1000 µM; under Ac-PPPRPPK-NH2 [MH041, Ac-PPPRPPK-NH2], more than 1000 µM.

The same experiment, now with this note: substitutions at position 1 of MD18; ITC, 25 °C, pH 8.0.
Ac-TPRPPKR-NH2 [MH113, Ac-TPRPPKR-NH2] returned a Kd not above 300 µM. Turning to Ac-RPRPPKR-NH2 [MH068, Ac-RPRPPKR-NH2], the Kd was not above 300 µM. On the same count and under the same terms, under Ac-LPRPPKR-NH2 [MH099, Ac-LPRPPKR-NH2] stands 300 to 600 µM. The compound Ac-EPRPPKR-NH2 [MH071, Ac-EPRPPKR-NH2] came in with a Kd not above 300 µM. As to Ac-QPRPPKR-NH2 [MH086, Ac-QPRPPKR-NH2], the Kd was not above 300 µM. Still for that read-out and setting: for Ac-KPRPPKR-NH2 [MH103, Ac-KPRPPKR-NH2] the value was not above 300 µM.

The experiment is the same for the next values; noted with them: substitutions at position 3 of MD18; ITC, 25 °C, pH 8.0.
In turn, Ac-PPLPPKR-NH2 [MH100, Ac-PPLPPKR-NH2] showed a Kd not above 300 µM. Still for that read-out and setting: under Ac-PPNPPKR-NH2 [MH060, Ac-PPNPPKR-NH2] stands not above 300 µM; under Ac-PPTPPKR-NH2 [MH114, Ac-PPTPPKR-NH2], not above 300 µM. In turn, Ac-PPFPPKR-NH2 [MH066, Ac-PPFPPKR-NH2] displayed a Kd not above 300 µM. On to Ac-PPHPPKR-NH2 [MH057, Ac-PPHPPKR-NH2], for which the Kd was not above 300 µM.

As for Ac-PPSPPKR-NH2 [MH059, Ac-PPSPPKR-NH2], the Kd was not above 300 µM. Same read-out and setting: under Ac-PPDPPKR-NH2 [MH084, Ac-PPDPPKR-NH2] stands not above 300 µM; under Ac-PPEPPKR-NH2 [MH058, Ac-PPEPPKR-NH2], not above 300 µM.

The compound Ac-PPCPPKR-NH2 [MH061, Ac-PPCPPKR-NH2] yielded a Kd not above 300 µM. The same measure, in the same setting: under Ac-PPMPPKR-NH2 [MH110, Ac-PPMPPKR-NH2] stands not above 300 µM; under Ac-PPYPPKR-NH2 [MH120, Ac-PPYPPKR-NH2], not above 300 µM.

The experiment is the same for the next values; noted with them: substitutions at position 4 of MD18 in a 7-mer; ITC, 25 °C, pH 8.0.
In the case of Ac-PPRYPKR-NH2 [MH121, Ac-PPRYPKR-NH2], the Kd lay in the range of 300 to 600 µM.

With Ac-PPRVPKR-NH2 [MH125, Ac-PPRVPKR-NH2], the Kd was not above 300 µM.

The compound Ac-PPRCPKR-NH2 [MH129, Ac-PPRCPKR-NH2] returned a Kd of more than 1000 µM. On the same count and under the same terms, under Ac-PPRQPKR-NH2 [MH131, Ac-PPRQPKR-NH2] stands more than 1000 µM; under Ac-PPREPKR-NH2 [MH130, Ac-PPREPKR-NH2], more than 1000 µM. Same read-out and setting: under Ac-PPRFPKR-NH2 [MH067, Ac-PPRFPKR-NH2] stands 600 to 1000 µM. The compound Ac-PPRRPKR-NH2 [MH062, Ac-PPRRPKR-NH2] showed a Kd of 300 to 600 µM. Compound Ac-PPRTPKR-NH2 [MH115, Ac-PPRTPKR-NH2] came in with a Kd of 300 to 600 µM. Consider Ac-PPRNPKR-NH2 [MH127, Ac-PPRNPKR-NH2], for which the Kd was more than 1000 µM.

The experiment is the same for the next values; noted with them: substitutions at position 6 of MD18; ITC, 25 °C, pH 8.0.
For Ac-PPRPPYR-NH2 [MH122, Ac-PPRPPYR-NH2], the Kd is not above 300 µM. Same read-out and setting: under Ac-PPRPPPR-NH2 [MH107, Ac-PPRPPPR-NH2] stands not above 300 µM. Ac-PPRPPCR-NH2 [MH054, Ac-PPRPPCR-NH2] had a Kd not above 300 µM. With Ac-PPRPPWR-NH2 [MH050, Ac-PPRPPWR-NH2], the Kd is not above 300 µM. As for Ac-PPRPPMR-NH2 [MH112, Ac-PPRPPMR-NH2], the Kd was not above 300 µM. On the same count and under the same terms, for Ac-PPRPPVR-NH2 [MH126, Ac-PPRPPVR-NH2] the value was not above 300 µM; for Ac-PPRPPIR-NH2 [MH098, Ac-PPRPPIR-NH2], not above 300 µM.

The experiment is the same for the next values; noted with them: substitutions at position 8 of the 8-mer MH063; ITC, 25 °C, pH 8.0; certain peptides tested one to three times.
Take Ac-PPRPPKRH-NH2 [MH146]: the Kd was not above 300 µM. The same measure, in the same setting: under Ac-PPRPPKRL-NH2 [MH147] stands not above 300 µM; under Ac-PPRPPKRP-NH2 [MH151], 300 to 600 µM. Still for that read-out and setting: for Ac-PPRPPKRC-NH2 [MH142] the value was not above 300 µM; for Ac-PPRPPKRK-NH2 [MH148], not above 300 µM; for Ac-PPRPPKRA-NH2 [MH138], not above 300 µM.

Ac-PPRPPKRM-NH2 [MH149]: the Kd is not above 300 µM.
